Numbers after ± are expanded uncertainties.
Conditions: Liquid, light scattering

CCCCCCCC(=O)OCC [ethyl octanoate]
Conditions | speed of sound [m/s]
293.25 K, 100 kPa | 1281 ± 13
293.65 K, 1000 kPa | 1284 ± 13
293.67 K, 2510 kPa | 1290.6 ± 13
293.69 K, 4020 kPa | 1296.8 ± 13
293.72 K, 5520 kPa | 1301 ± 13
293.75 K, 6980 kPa | 1307.1 ± 13
293.77 K, 8490 kPa | 1313.5 ± 13
293.77 K, 10010 kPa | 1325.8 ± 13
303.05 K, 100 kPa | 1245.9 ± 12
303.08 K, 8480 kPa | 1288.6 ± 13
303.13 K, 7040 kPa | 1280.7 ± 13
303.14 K, 3980 kPa | 1263.7 ± 13
303.15 K, 1030 kPa | 1249.1 ± 13
303.15 K, 2510 kPa | 1257.8 ± 13
303.15 K, 5520 kPa | 1273.7 ± 13
303.18 K, 10000 kPa | 1295.5 ± 13
313.07 K, 100 kPa | 1211 ± 12
313.15 K, 1000 kPa | 1214.2 ± 12
313.28 K, 9990 kPa | 1263.2 ± 13
313.38 K, 8530 kPa | 1257.4 ± 13
313.39 K, 5500 kPa | 1240.3 ± 12
313.4 K, 2510 kPa | 1223.2 ± 12
313.4 K, 4060 kPa | 1230.6 ± 12
313.41 K, 6980 kPa | 1249.6 ± 13
322.88 K, 100 kPa | 1176.3 ± 12
323.19 K, 8540 kPa | 1227.3 ± 12
323.29 K, 10100 kPa | 1231.2 ± 12
323.33 K, 1200 kPa | 1185.7 ± 12
323.35 K, 2490 kPa | 1190.8 ± 12
323.35 K, 3970 kPa | 1197.8 ± 12
323.35 K, 5510 kPa | 1205.3 ± 12
323.35 K, 7060 kPa | 1215 ± 12
332.39 K, 9980 kPa | 1202.3 ± 12
332.49 K, 8520 kPa | 1194.3 ± 12
332.64 K, 7040 kPa | 1183.5 ± 12
332.65 K, 5510 kPa | 1175.2 ± 12
332.67 K, 2480 kPa | 1158.3 ± 12
332.67 K, 4030 kPa | 1167.5 ± 12
332.68 K, 980 kPa | 1149.1 ± 12
333 K, 100 kPa | 1141.8 ± 11
342.6 K, 890 kPa | 1113.2 ± 11
342.61 K, 4000 kPa | 1133.9 ± 11
342.64 K, 2530 kPa | 1124.1 ± 11
342.71 K, 5490 kPa | 1142.7 ± 11
342.74 K, 8510 kPa | 1163.8 ± 12
342.77 K, 6990 kPa | 1152.8 ± 12
342.94 K, 9970 kPa | 1168.8 ± 12
343.12 K, 100 kPa | 1107.4 ± 11
352.36 K, 100 kPa | 1073.3 ± 11
353.44 K, 10120 kPa | 1135.6 ± 11
353.54 K, 2480 kPa | 1088 ± 11
353.54 K, 6990 kPa | 1116 ± 11
353.54 K, 8520 kPa | 1129.3 ± 11
353.56 K, 1030 kPa | 1080.3 ± 11
353.58 K, 5480 kPa | 1103.2 ± 11
353.6 K, 4000 kPa | 1096.3 ± 11
363.16 K, 8500 kPa | 1095.2 ± 11
363.19 K, 100 kPa | 1039.3 ± 10
363.19 K, 1070 kPa | 1047.2 ± 11
363.19 K, 7030 kPa | 1083.1 ± 11
363.21 K, 2520 kPa | 1053.8 ± 11
363.21 K, 4080 kPa | 1062 ± 11
363.21 K, 5520 kPa | 1071.3 ± 11
363.26 K, 10030 kPa | 1104.7 ± 11
372.7 K, 2510 kPa | 1022.9 ± 10
372.73 K, 3980 kPa | 1033.3 ± 10
372.75 K, 8570 kPa | 1067.6 ± 11
372.79 K, 100 kPa | 1005.6 ± 10
372.79 K, 1040 kPa | 1013.2 ± 10
372.82 K, 5530 kPa | 1046.7 ± 11
372.82 K, 6960 kPa | 1055.2 ± 11
372.95 K, 10040 kPa | 1074.2 ± 11
382.73 K, 7000 kPa | 1020.4 ± 10
382.8 K, 5550 kPa | 1012.8 ± 10
382.82 K, 4060 kPa | 998.99 ± 10
382.9 K, 2540 kPa | 988.47 ± 9.9
382.95 K, 100 kPa | 972.04 ± 9.8
382.95 K, 1050 kPa | 980.18 ± 9.9
383.03 K, 8530 kPa | 1028.1 ± 10
383.13 K, 9970 kPa | 1042.4 ± 10
391.81 K, 8490 kPa | 1002.4 ± 10
391.91 K, 9990 kPa | 1015 ± 10
392.15 K, 7010 kPa | 991.89 ± 10
392.29 K, 5490 kPa | 982.56 ± 9.9
392.32 K, 100 kPa | 938.67 ± 9.4
392.32 K, 1010 kPa | 945.16 ± 9.5
392.33 K, 2550 kPa | 958.2 ± 9.6
392.33 K, 4070 kPa | 971.34 ± 9.8
402.89 K, 4000 kPa | 940.63 ± 9.5
402.9 K, 7020 kPa | 959.16 ± 9.7
402.91 K, 100 kPa | 905.5 ± 9.1
402.91 K, 1000 kPa | 915.87 ± 9.2
402.91 K, 2490 kPa | 928.04 ± 9.3
402.91 K, 8480 kPa | 970.85 ± 9.8
402.92 K, 10030 kPa | 980.74 ± 9.9
402.93 K, 5470 kPa | 948.7 ± 9.6
412.66 K, 8500 kPa | 941.83 ± 9.5
412.76 K, 10040 kPa | 953.27 ± 9.6
412.87 K, 7050 kPa | 922.57 ± 9.3
413.17 K, 5530 kPa | 910.63 ± 9.2
413.21 K, 100 kPa | 872.52 ± 8.8
413.21 K, 1080 kPa | 878.09 ± 8.8
413.21 K, 4060 kPa | 901.97 ± 9.1
413.22 K, 2570 kPa | 890.98 ± 9
423.24 K, 8520 kPa | 908.5 ± 9.2
423.29 K, 7010 kPa | 892.99 ± 9
423.3 K, 5530 kPa | 882.56 ± 8.9
423.31 K, 2520 kPa | 857.92 ± 8.6
423.32 K, 100 kPa | 839.73 ± 8.5
423.32 K, 1150 kPa | 848.64 ± 8.6
423.44 K, 10060 kPa | 919.28 ± 9.3
423.53 K, 4090 kPa | 870.32 ± 8.8
432.95 K, 5520 kPa | 847.49 ± 8.6
432.96 K, 8480 kPa | 875.16 ± 8.8
433.06 K, 10010 kPa | 888.66 ± 9
433.09 K, 7010 kPa | 859.4 ± 8.7
433.41 K, 2490 kPa | 823.86 ± 8.3
433.44 K, 100 kPa | 807.14 ± 8.1
433.44 K, 1010 kPa | 813.1 ± 8.2
433.84 K, 4510 kPa | 835.67 ± 8.4
442.69 K, 8510 kPa | 841.83 ± 8.5
442.9 K, 7010 kPa | 829.81 ± 8.4
442.99 K, 10020 kPa | 857.21 ± 8.7
443.15 K, 5510 kPa | 817.42 ± 8.2
443.16 K, 3990 kPa | 805.02 ± 8.1
443.51 K, 2510 kPa | 790.8 ± 8
443.55 K, 100 kPa | 774.74 ± 7.8
443.55 K, 990 kPa | 780.57 ± 7.9
452.41 K, 8480 kPa | 813.49 ± 8.2
452.7 K, 7010 kPa | 798.22 ± 8.1
453.15 K, 5520 kPa | 789.35 ± 8
453.41 K, 10010 kPa | 826.34 ± 8.3
453.47 K, 4510 kPa | 776.37 ± 7.8
453.61 K, 2490 kPa | 762.74 ± 7.7
453.66 K, 100 kPa | 742.53 ± 7.5
453.66 K, 1010 kPa | 749.03 ± 7.6
462.5 K, 7010 kPa | 772.63 ± 7.8
463.14 K, 8480 kPa | 783.19 ± 7.9
463.15 K, 5520 kPa | 760.28 ± 7.7
463.24 K, 10010 kPa | 795.41 ± 8
463.71 K, 2490 kPa | 730.68 ± 7.4
463.78 K, 100 kPa | 710.51 ± 7.2
463.78 K, 1010 kPa | 715.5 ± 7.2
463.79 K, 4510 kPa | 744.72 ± 7.5
472.07 K, 8500 kPa | 760.99 ± 7.7
472.09 K, 1040 kPa | 688.23 ± 7
472.09 K, 6960 kPa | 745.31 ± 7.5
472.11 K, 2530 kPa | 704.34 ± 7.1
472.14 K, 5460 kPa | 730.7 ± 7.4
472.15 K, 4000 kPa | 718.2 ± 7.3
472.17 K, 10000 kPa | 773.29 ± 7.8
473.09 K, 100 kPa | 678.69 ± 6.9

Conditions | speed of sound [m/s]
293.73 K | 1275.7 ± 13
302.98 K | 1243 ± 12
313.53 K | 1206.1 ± 12
323.27 K | 1173.1 ± 12
332.65 K | 1138.5 ± 11
343.2 K | 1103.8 ± 11
352.53 K | 1069.9 ± 11
363.28 K | 1035.2 ± 10
372.96 K | 1001.9 ± 10
383 K | 969.3 ± 9.7
392.03 K | 936.3 ± 9.4
403.14 K | 901.4 ± 9.1
413.12 K | 869.5 ± 8.8
423.11 K | 835.7 ± 8.4
433.2 K | 801.1 ± 8.1
443.05 K | 770.7 ± 7.8
453.11 K | 738.5 ± 7.5
463.17 K | 705.5 ± 7.1
472.16 K | 675 ± 6.8
